Earlier results on 41 substances are cited in article PMC8198792, “Prediction of Anticancer Peptides with High Efficacy and Low Toxicity by Hybrid Model Based on 3D Structure of Peptides” (International Journal of Molecular Sciences, 2021).

This data set has as its system cancer cell lines. The arrangement: method as in 6 sources, ref CancerPPD [45] and SATPdb ||| ref CancerPPD/SATPdb ||| ref CancerPPD, SATPdb, Swissprot (PDB) ||| ref CancerPPD/SATPdb/Swissprot(PDB) ||| ref CancerPPD / SATPdb ||| ... The settings on record: cited from earlier work. An excerpt:
Supplement ijms-22-05630-s001.zip/ACPs(seguence).xlsx, sheet "D1" | column: Activity || Supplement ijms-22-05630-s001.zip/ACPs(seguence).xlsx, sheet "D2" | column: Activity || Supplement ijms-22-05630-s001.zip/ACPs(seguence).xlsx, sheet "D3" | column: Activity || (+ 2 further places)

The mark [1] stands for this setting: ACPs dataset D1, label 1 = ACP, 0 = non-ACP (non-anticancer AMPs from SATPdb), ref CancerPPD/SATPdb.
[2] abbreviates: ACPs dataset D4 (sheet "D4"), label 1 = ACP (CancerPPD ID), 0 = non-ACP (non-anticancer AMP, SATPdb ID), ref CancerPPD [45] and SATPdb.
Setting [3] is: ACPs dataset D2 (supplement ACPs(seguence).xlsx, sheet D2), dataset label 1/0 (ACP / non-ACP), entries identified by Swissprot(PDB ID), ref CancerPPD/SATPdb/Swissprot(PDB).
[4] abbreviates: ACPs dataset D5, sheet "D5", label 1 = ACP, 0 = non-ACP, ref CancerPPD [45] and SATPdb.
Setting [5] is: ACPs dataset D1, 1 = ACP (positive), 0 = non-ACP (negative), label taken from databases, ref CancerPPD [45] and SATPdb.
The mark [6] stands for this setting: ACPs dataset D4 (sheet "D4"), label 1 = ACP, experimentally validated ACPs, ref CancerPPD [45] and SATPdb.
Setting [7] is: ACPs dataset D5 (sheet "D5"), label 1 = ACP (positive set), sequences with CancerPPD/SATPdb ID, ref CancerPPD, SATPdb.
Where [8] appears, read: ACPs dataset sheet D2, 1 = ACP (CancerPPD/SATPdb ID), 0 = non-ACP (Swissprot/PDB ID), ref CancerPPD, SATPdb, Swissprot (PDB).
Setting [9] is: ACPs dataset D5 (sheet "D5"), label 1 = ACP (positive set), 0 = non-ACP (negative set), ref CancerPPD [45] and SATPdb.
[10] abbreviates: ACPs dataset D3 (supplement sheet "D3"), 1 = ACP, 0 = non-ACP, ref CancerPPD [45] and SATPdb.
Setting [11] is: ACPs dataset D4 (sheet "D4"), label 1 = ACP, 0 = non-ACP, ref CancerPPD / SATPdb.
The mark [12] stands for this setting: ACPs dataset D3 (sheet "D3"), label 1 = ACP, 0 = non-ACP, ref CancerPPD/SATPdb.

Where two headings read alike, the source gives them in different places.

For “GIFSLIKGAAKLITKTVAKEAGKTGLELMACKVTNQC [satpdb12414]”, the Activity was 0 under setting [1] and 0 under setting [2].

For the substance “MRLKKRFKKFFISRKEYEKIEEILDIGLAKAMEETKDDELLTYDEIKELLGDK [3BPQ X-ray 2.20,A/C,1-52]”, the Activity by setting is: under setting [3], 0; under setting [4], 0.

As for QPWSQCSATCGDGVRERRR [satpdb12468], the Activity is 1 under setting [5], 1 under setting [6], 1 under setting [7] and 1 under setting [8].

As to “ISDYSIAMDKIRQQDFVNWLLAQKGKKSDWKHNITQ [satpdb11921]”, the Activity by setting is: under setting [1], 0; under setting [2], 0.

For IFGAILPLAL GALKNLIK [2N0O NMR - A 1-18], the Activity under setting [9] is on record as 0 and the Activity under setting [8] was 0.

For “KWKSFAKTFKSAKKTVAHTALKAISS [compound 1445]”, the Activity is, setting by setting: under setting [5], 1; under setting [6], 1; under setting [7], 1; under setting [8], 1.

With “KWKSFLKTFKSlKKTVLHTLLKAISS [compound 3769]”, the Activity is, setting by setting: under setting [10], 1; under setting [2], 1; under setting [9], 1.

KMWSKILGHLIR [compound 3511]: the Activity by setting is: under setting [10], 1; under setting [2], 1; under setting [9], 1.

In the case of “GIGKFLHSAKKFGKAFVGEIMNSKKKKKKKKKK [satpdb13107]”, the Activity reads like this: under setting [1], 0; under setting [11], 0.

For FLGMIPGLIGGLISAFK [compound 3125], the Activity by setting is: under setting [10], 1; under setting [6], 1; under setting [7], 1.

On to GILGKLWEGFKSIV [satpdb13792], for which the Activity is on record as 0 under setting [12], 0 under setting [11] and 0 under setting [4].

Consider INLKAIAAMAKKL [satpdb11272], for which the Activity is, setting by setting: under setting [5], 0; under setting [2], 0.

Turning to RRWCFRVCYR GFCYRKCR [1RKK NMR - A 1-18], the Activity under setting [9] is given as 0 and the Activity under setting [8] was 0.

On to VRRFPWWWAFLRR [satpdb11783], for which the Activity is 0 under setting [10], 0 under setting [11] and 0 under setting [4].

Regarding INWKKIAEVGGKILSS [satpdb11077], the Activity is, setting by setting: under setting [5], 0; under setting [2], 0.

Take ALWKTLLKKVLKA [satpdb12593]: the Activity is, setting by setting: under setting [11], 0; under setting [4], 0.

For the substance “GLFSKFVGKGIKNFLIKGVKHIGKEVGMDVIRVGIDVAGCKIKGVC [satpdb10682]”, the Activity runs as follows: under setting [5], 0; under setting [2], 0.

For KWKLFKKIPHLAKKF [compound 1140], the Activity is listed as 1 under setting [10], 1 under setting [2] and 1 under setting [9].

“MFSPILSLEIILALATLQSVFAQPVICTTVGSAAEGS [satpdb11835]”: the Activity reads like this: under setting [5], 1; under setting [6], 1; under setting [7], 1; under setting [8], 1.

Consider “DKLIGSCVWGAVNYTSNCNAECKRRGYKGGHCGSFANVNCWCET [1OZZ NMR - A 1-44]”, for which the Activity is, setting by setting: under setting [3], 0; under setting [9], 0.

Consider PLLQATLGGGS [compound 3726], for which the Activity is, setting by setting: under setting [5], 1; under setting [6], 1; under setting [7], 1; under setting [8], 1.

With “YGRKKRRQRRRREADFFWSLCTADMS [compound 3718]”, the Activity under setting [5] is reported as 1, the Activity under setting [6] is reported as 1, the Activity under setting [7] is on record as 1 and the Activity under setting [8] is on record as 1.

“SDQGDVAEPKMHKTAPPFDFEAIPEEYLDDES [3B23 X-ray 2.40 C 1-32]”: the Activity reads like this: under setting [9], 0; under setting [8], 0.

With EIPSCESSASPDQSDSSVPPEE [satpdb17950], the Activity reads like this: under setting [5], 1; under setting [6], 1; under setting [7], 1; under setting [8], 1.

Turning to GLFDVIKKVAAVIGGL [compound 4066], the Activity by setting is: under setting [10], 1; under setting [2], 1; under setting [9], 1.

On to “KRFKKFFKKLKNSVKKRVKKFFRKPRVIGVTFPF [satpdb10654]”, for which the Activity under setting [5] is on record as 0 and the Activity under setting [2] is given as 0.

As for FLPAIAGMAAKFLPKIFCAISKKC [satpdb12699], the Activity runs as follows: under setting [1], 0; under setting [11], 0.

With GLFDVIKKVASVIKKL [compound 4084], the Activity by setting is: under setting [10], 1; under setting [2], 1; under setting [9], 1.

With NGKQVCLDPEAPFLKKVIQKILDS [satpdb17154], the Activity was 1 under setting [5], 1 under setting [6], 1 under setting [7] and 1 under setting [8].

Take GVWSTILGGLKKFAKGGLDAIVNPK [satpdb10425]: the Activity reads like this: under setting [5], 0; under setting [2], 0.

In the case of FLKLLKKLAAKLF [compound 1005], the Activity by setting is: under setting [5], 1; under setting [6], 1; under setting [7], 1; under setting [8], 1.

Turning to “GSEGPLKPGARIFSFDGKDVLRHPT [compound 4204]”, the Activity under setting [5] is 1, the Activity under setting [6] is 1, the Activity under setting [7] is reported as 1 and the Activity under setting [8] is 1.

As for GLFVGLAKVAAHNNPAIAEHFQA [compound 4390], the Activity is, setting by setting: under setting [5], 1; under setting [6], 1; under setting [7], 1; under setting [8], 1.

Turning to FAKKLAKKLKKLAKKLAKLAKKL [compound 1914], the Activity under setting [10] is reported as 1, the Activity under setting [6] is 1 and the Activity under setting [7] is recorded as 1.

Consider “LVPRGSRAGSPSGGPFCALARQPLTGARLMSGLFFALHET [satpdb15805]”, for which the Activity is 1 under setting [5], 1 under setting [6], 1 under setting [7] and 1 under setting [8].

With CLRIGMRGRELMGGIGKTM [satpdb12393], the Activity reads like this: under setting [1], 0; under setting [2], 0.

Consider QEPHRHSIFTPQTNPRADLEKN [satpdb11381], for which the Activity under setting [5] was 1, the Activity under setting [6] was 1, the Activity under setting [7] is recorded as 1 and the Activity under setting [8] is reported as 1.

For the substance “GSIPCAESCVYIPCITGIAGCSCKNKVCYYN [satpdb12154]”, the Activity runs as follows: under setting [1], 0; under setting [2], 0.

With GIFGKILGAGKKVLCGLSGLC [satpdb11792], the Activity is reported as 0 under setting [1] and 0 under setting [2].

Regarding SKWSECSRTCGGGVKFQER [satpdb16830], the Activity is, setting by setting: under setting [5], 1; under setting [6], 1; under setting [7], 1; under setting [8], 1.

Consider SLIPHAINAVSAIAKHF [satpdb12892], for which the Activity was 0 under setting [12], 0 under setting [11] and 0 under setting [4].
